# Results as given in patent US20250099420A1, “SMALL MOLECULE MODULATORS OF GPR139 COMPLEX” (University of Florida Research Foundation, Incorporated, priority 2022, published 2025).
# Legend:
# [1] = target: T1, GPR139 (Homo sapiens, UniProt Q6DWJ6); test: GPR139 Antagonist titration assay (calcium detection, HEK-GPR139 cells, vs EC80 of S-JNJ-63533054); conditions: for GPR139 Antagonist Activity Averaged Max % Response (±St. Dev.): activity relative to known control; for GPR139 Antagonist Activity Hill Slope: fitted dose-response curve
# T1 sequence (Q6DWJ6 1-353): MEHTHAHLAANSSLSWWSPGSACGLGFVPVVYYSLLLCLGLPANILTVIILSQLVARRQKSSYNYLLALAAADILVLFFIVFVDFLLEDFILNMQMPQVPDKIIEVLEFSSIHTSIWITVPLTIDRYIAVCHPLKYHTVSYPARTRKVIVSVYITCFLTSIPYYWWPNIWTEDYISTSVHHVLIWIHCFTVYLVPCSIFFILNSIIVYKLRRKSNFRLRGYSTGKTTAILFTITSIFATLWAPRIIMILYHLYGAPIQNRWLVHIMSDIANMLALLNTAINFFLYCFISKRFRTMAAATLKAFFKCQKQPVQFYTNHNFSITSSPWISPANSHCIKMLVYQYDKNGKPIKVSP
# Procedure: (§1) GPR activity was assessed using a calcium detection assay. GPR139 agonists stimulate an increase in intracellular calcium in HEK-GPR139 cells. Agonists increase the release of intracellular calcium, while antagonists decrease the release of intracellular calcium, as compared to an EC80 stimulation of the know agonist S-JNJ-63533054. The positive control for the agonist mode was cells treated with EC100 of known agonist S-JNJ-63533054. Negative control samples were treated with DMSO. The antagonist high control in cells was EC80 of S-JNJ-63533054+IC100 S-JNJ-3792165, while cells were treated with EC80 of S-JNJ-63533054+DMSO for the low control. Intracellular calcium was measured using Calcium 5.
# (§2) HEK cells were transfected the DNA encoding GPR139 and incubated for 24 hours. 3000 cells/well in 3 μL HEPES and 1% DMSO were seeded into 1536-well plates. 3 μL Calcium 5 was then added to each well and cells were incubated for 60 min. at 37° C. in 5% CO2 and 95% relative humidity. Cells were pretreated with 50 nL DMSO (5 min. at room temperature in the dark) to stabilize response and desensitize cells to DMSO. A 5 second basal read was recorded and compounds in 30 nL were added to the cells, followed by a 150 second read.
# (§3) B. Antagonist Mode: The “High Control” represented wells containing cells with GPR139+Antagonist IC100+Agonist EC80. “Low Control” represented wells containing cells with GPR139 with EC100 Agonist. “0% control” and sample field represented wells containing cells with GPR139 with EC80 Agonist with DMSO or compounds. The Z′ and S:B for this assay were calculated using the High Control and Low Control wells.
# (§4) The HEK parental counterscreen utilized the same cells but not transfected with the plasmid. Acetylcholine was used in place of GPR139 agonist as the control compound. The cells were plated overnight, similar to the HEK antagonist counterscreen protocol.
# (§5) The GPR139 Agonist and Antagonist titration assays employed the same reagents, protocols, and detection systems as the primary assays, but tested each as 10 point dose response starting at 676 nM concentration in triplicate with 1:3 dilutions. The HEK parental counterscreens utilized the same cells but not transfected with the plasmid. Acetylcholine was used in place of GPR139 agonist as the control compound. The cells were plated overnight, similar to the HEK antagonist counterscreen protocol.
# (§6) For each test compound, percent activation was plotted against compound concentration. A four parameter equation describing a sigmoidal dose-response curve was then fitted with adjustable baseline using Assay Explorer software (Symyx Technologies Inc.).
# [2] = target: T1, GPR139
# Procedure: as §1, §2, §3, §4, §5, §6
# [3] = target: T1, GPR139; test: GPR139 Agonist titration / agonist counterscreen assay (calcium detection, HEK-GPR139 cells); type: cell-based; design: expressed in transfected cells; host or cells: HEK Aequorin cells, Maxcyte transient transfection; conditions: agonist counterscreen of the antagonists; for EC50: scientific notation, molarity, read-out: GRP139 Agonist activity EC50
# Procedure: GPR activity was assessed using a calcium detection assay. […] Negative control samples were treated with DMSO. […] Intracellular calcium was measured using Calcium 5.
# [4] = system: parental HEK cells; test: HEK parental Antagonist Counterscreen Assay (non-transfected cells, acetylcholine control); type: cell-based
# Excerpt: C. […] The HEK parental counterscreen utilized the same cells but not transfected with the plasmid. The agonist and antagonist modes were run the same way as the primary screen but acetylcholine was used in place of GPR139 agonist as the control compound.
# The HEK parental counterscreen utilized the same cells but not transfected with the plasmid. The antagonist modes assays utilized the cells being plated in the 1536 well plate overnight in growth media prior to dye loading in PDL coated plates and acetylcholine was used in place of GPR139 agonist as the control compound.
# as §4
# The HEK parental counterscreens utilized the same cells but not transfected with the plasmid. Acetylcholine was used in place of GPR139 agonist as the control compound. The cells were plated overnight, similar to the HEK antagonist counterscreen protocol.
# as §6
GPR139 Antagonist Activity Ligand Efficiency [1],GPR139 Antagonist Activity Averaged Max % Response (±St. Dev.) [1],GPR139 Antagonist Activity Hill Slope [1],GPR139 Antagonist Activity Lipophilic Efficiency (logD) [2],GPR139 Antagonist Activity Lipophilic Efficiency (logP) [2],GRP139 Agonist activity Averaged Max % Response (±St. Dev.) [3],EC50 [3],GRP139 Agonist activity Hill Slope [3],SMILES,HEK antagonist activity Averaged Max % Response (±St. Dev.) [4]
0.24,54.78 ± 3.56%,1.21,−52.3E−3,−52.4E−3,3.20 ± 6.96%,> 11.2 µM,–,CC(C)C(=O)N1CCN(c2nc(-c3ccccc3)c3c(c2C#N)CCCC3)CC1 [SR-01000000597],14.40 ± 10.68%
0.25,71.06 ± 5.55%,0.45,−672.3E−3,−672.4E−3,−854E−3 ± 6.10 ^ %,> 14.5 µM,–,O=C(CSc1nc(-c2ccccc2)cn1-c1ccccc1)Nc1ccc(F)cc1 [SR-01000555394],31.37 ± 1.24%
0.23,81.12 ± 9.72%,0.67,−850.1E−3,−850.1E−3,9.47 ± 9.31%,> 12.1 µM,–,CCc1ccccc1NC(=O)CSc1nnc(-c2ccccc2)c(-c2ccccc2)n1 [SR-01000581835],8.20 ± 4.35%
0.18,68.96 ± 6.17%,0.63,2.05,1.85,4.26 ± 2.46%,> 13.9 µM,–,O=C(NCCCN1CCCC1=O)c1ccc(NCc2ccc(F)cc2)c(S(=O)(=O)Nc2cccc(C(F)(F)F)c2)c1 [SR-01000575726],42.61 ± 24.54%
0.18,94.71 ± 3.14%,0.39,−546.E−3,−780.8E−3,96.44 ± 1.50%,13.2 µM,10.54,COc1ccc(C2=NN(C3CCCCCC3)C(=O)[C@@H]3CC=CC[C@@H]23)cc1OCCCCOc1ccc(-c2nn[nH]n2)cc1 [SR-05000022540],6.21 ± 10.10%
0.24,52.97 ± 3.58%,0.71,−1.3E+0,−1.3E+0,2.28 ± 5.10%,> 13.3 µM,–,Cc1ccc(-n2cc(-c3ccccc3)nc2SCC(=O)Nc2ccccc2)cc1 [SR-01000555455],6.61 ± 6.46%
0.24,86.26 ± 1.14%,0.79,−708.8E−3,−708.9E−3,−4.8E+0 ± 5.84 ^ %,> 13.6 µM,–,COc1ccc(-n2cc(-c3ccccc3)nc2SCC(=O)Nc2ccccc2C)cc1 [SR-01000555409],31.02 ± 1.30%
0.24,69.58 ± 6.90%,1.30,−1.9E+0,−1.9E+0,7.97 ± 3.98%,> 11.9 µM,–,Cc1ccc(-n2cc(-c3ccccc3)nc2SCC(=O)Nc2cccc(C)c2C)cc1 [SR-01000555460],8.34 ± 10.04%
0.25,77.29 ± 7.71%,1.40,−954.3E−3,−954.4E−3,5.29 ± 2.24%,> 14 µM,–,Cc1ccc(-n2cc(-c3ccccc3)nc2SCC(=O)Nc2ccc(F)cc2)cc1 [SR-01000555461],0.37 ± 8.79%
0.26,78.69 ± 5.10%,0.44,−548.5E−3,−548.6E−3,12.88 ± 6.35%,> 13.2 µM,–,COc1ccccc1-n1cc(-c2ccccc2)nc1SCC(=O)Nc1cccc(C)c1C [SR-01000555431],3.15 ± 12.32%
0.24,86.39 ± 3.49%,0.71,0.81,0.81,1.62 ± 7.06%,> 12.1 µM,–,Cc1ccc(CNC(=O)CSc2nc3ccsc3c(=O)n2NC(=O)c2cccc(Br)c2)cc1 [SR-01000564946],30.88 ± 11.77%
0.24,69.32 ± 5.67%,1.62,−1.5E+0,−1.5E+0,4.27 ± 6.30%,> 11 µM,–,Cc1ccc(-c2cn(-c3ccccc3)c(SCC(=O)Nc3ccccc3C)n2)cc1 [SR-01000555444],6.69 ± 8.37%
0.27,67.66 ± 7.67%,2.60,4.02,0.66,19.36 ± 5.93%,> 14.1 µM,–,O=C(Nc1ccccc1C(=O)O)c1ccc(Oc2ccc([N+](=O)[O-])cc2)cc1 [SR-01000201144],81.74 ± 3.36%
0.28,90.37 ± 1.31%,0.68,1.95,1.94,8.07 ± 1.27%,> 14.1 µM,–,Cc1cc(C(=O)N/N=C/c2cn(Cc3ccccc3)c3ccccc23)n[nH]1 [SR-01000110742],24.28 ± 7.95%
